Test results: PMC10283505, “CVM-1118 (foslinanib), a 2-phenyl-4-quinolone derivative, promotes apoptosis and inhibits vasculogenic mimicry via targeting TRAP1” (Pathology and Oncology Research, 2023)

What was measured:
[1] = tested on: nine selected human cancer cell lines; assay: Cytotoxicity assay, panel of nine selected human cancer cell lines; format: cell-based; conditions: all nine cell lines of Table 1
Description: (§1) This assay was conducted in ProQinase GmbH (Freiburg, Germany). Nine cancer cell lines (A549, DU-145, HT-29, MDA-MB-231, MDA-MB-435, Mia PaCa-2, NCI-ADR-RES, SK-N-MC, and U118MG) were seeded at 5,000 cells/well in 96-well cell culture plates in 150 µL of complete medium for 24 h prior to treatment. The test compounds CVM-1118 and CVM-1125 were synthesized by China Medical University, Chengdu Chempartner Co., Ltd., and Formosa Laboratories, Inc. To prepare the assay, the compounds were dissolved in 100% DMSO at a concentration of […]. Cells were then treated with vehicle, CVM-1118 or CVM-1125 at various concentrations for 72 h. Cell viability was determined by the fluorescent quantification of Alamar Blue (Invitrogen, Thermo Fisher Scientific). By the end of incubation, Alamar Blue reagent was added to the well for 4 h and the fluorescence was measured at 590 nm. The amount of fluorescence produced is proportional to the number of metabolically active cells. IC50 determination was performed using a variable slope sigmoidal response fitting model with 0% cell growth as a bottom constraint and 100% cell growth as a top constraint (GraphPad Prism, United States).

[2] = tested on: Mia PaCa-2; assay: Cytotoxicity assay (Alamar Blue, 72 h); format: cell-based; conditions: Homo sapiens, Mia PaCa-2 (Pancreatic)
Description: (§2) For cytotoxicity and cell cycle analysis, the following cell lines were used, and their culture conditions were as described: for A549, DU-145, HT-29, MDA-MB-231, Mia PaCa-2, and U118MG, cells were cultured in DMEM containing 10% FCS; for MDA- MB-435 and NCI-ADR-RES, cells were cultured in RPMI-1640 containing 10% FCS, and for SK-N-MC, cells were cultured in MEM containing 10% FCS. For the animal pharmacology study, HCT-116, a colon cancer cell line was tested. Cells were cultured in McCoy’s 5a medium supplemented with 10% heat inactivated fetal bovine serum. For the cell lines used in VM analysis and target identification, C8161 and COLO205 cells were maintained in RPMI-1640 containing 10% FBS and 0.1% gentamycin sulfate. The SKOV3 line was cultured in RPMI-1640 supplemented with 15% FBS and 0.1% gentamycin sulfate. For the SK-MEL28 and MCF-7, cells were maintained in MEM/Earles Salts supplemented with 10% FBS and 0.1% gentamycin sulfate.
as §1

[3] = tested on: NCI-ADR-RES; assay: Cytotoxicity assay (Alamar Blue, 72 h); format: cell-based; conditions: Homo sapiens, NCI-ADR-RES (Ovarian)
Description: as §2, §1

[4] = tested on: A549; assay: Cytotoxicity assay (Alamar Blue, 72 h); format: cell-based; conditions: Homo sapiens, A549 (Lung)
Description: as §2, §1

[5] = tested on: U118MG; assay: Cytotoxicity assay (Alamar Blue, 72 h); format: cell-based; conditions: Homo sapiens, U-118-MG, U118MG (Glioma)
Description: as §2, §1

[6] = tested on: HT-29; assay: Cytotoxicity assay (Alamar Blue, 72 h); format: cell-based; conditions: Homo sapiens, HT-29 (Colon)
Description: as §2, §1

[7] = tested on: SK-N-MC; assay: Cytotoxicity assay (Alamar Blue, 72 h); format: cell-based; conditions: Homo sapiens, SK-N-MC (Neuroblastoma)
Description: as §2, §1

[8] = tested on: MDA-MB-435; assay: Cytotoxicity assay (Alamar Blue, 72 h); format: cell-based; conditions: Homo sapiens, MDA-MB-435 (Melanoma)
Description: as §2, §1

[9] = tested on: MDA-MB-231; assay: Cytotoxicity assay (Alamar Blue, 72 h); format: cell-based; conditions: Homo sapiens, MDA-MB-231 (Breast)
Description: as §2, §1

[10] = tested on: DU-145; assay: Cytotoxicity assay (Alamar Blue, 72 h); format: cell-based; conditions: Homo sapiens, DU-145 (Prostate)
Description: as §2, §1

[11] = Pharmacokinetic study of oral CVM-1118 in mouse (plasma, LC-MS/MS); format: in vivo, male CD-1 mice; conditions: for AUC(0-inf) / AUC(0-t) / Cmax / MRT / Tmax / half-life: mouse, analyte in plasma after single oral CVM-1118 30 mg/kg in 9% NaHCO3, fasted male CD-1 mice; for half-life: read-out: T1/2 (terminal half-life) (converted)
Description: Supplementary Results on Pharmacokinetic study of oral CVM-1118 in Mouse Method: The pharmacokinetics of CVM-1118 and CVM-1125 were investigated in male CD-1 mice following a single oral administration of CVM-1118 at 30 mg/kg in 9% NaHCO3 in fasted mice. At pre-determined time points, plasma samples were collected and stored at -20°C prior to measurement of CVM-1118 and CVM-1125 concentrations using an LC-MS/MS method. The plasma samples were collected at 0, 0.25, 0.5, 1, 2, 4, 8, 12, 24 and 27 h after dosing with 3 mice per group at each time […]
Result: For single oral administration of 30 mg/kg CVM-1118 in 9% NaHCO3 solution, […]
from CVM-1118 to CVM-1125 occurred very rapidly.
1118 and CVM-1125. The drug exposure (AUC0-inf) of CVM-1118 was low (7 ng·h/mL), indicating rapid conversion to CVM-1125 following oral dosing (AUC0-inf of TRX-818M1 was 287 ng·h/mL). The terminal half-life of CVM-1118 and CVM-1125 were 0.7 h and 8.3 h, respectively. The oral bioavailability of CVM-1118 was low (~3%), […]
1118, was considered favorable.
Mean plasma concentrations-time curves of CVM-1118 and CVM-1125 following a single dose of CVM-1118 in male CD-1 mice
(1 picture or pasted object on this page, not shown here)

[12] = tested on: RPMI-8226; assay: NCI 60 cytotoxicity screening; format: cell-based; conditions: Homo sapiens; RPMI-8226, Leukemia
[13] = tested on: A549/ATCC; assay: NCI 60 cytotoxicity screening; format: cell-based; conditions: Homo sapiens, NSCLC
[14] = tested on: A498; assay: NCI 60 cytotoxicity screening; format: cell-based; conditions: Homo sapiens; A498, Renal
[15] = tested on: SF-295; assay: NCI 60 cytotoxicity screening; format: cell-based; conditions: Homo sapiens; SF-295, CNS
[16] = tested on: MDA-MB-435; assay: NCI 60 cytotoxicity screening; format: cell-based; conditions: Homo sapiens; MDA-MB-435, Melanoma
[17] = tested on: U251; assay: NCI 60 cytotoxicity screening; format: cell-based; conditions: Homo sapiens, U-251; U251, CNS
[18] = tested on: T-47D; assay: NCI 60 cytotoxicity screening; format: cell-based; conditions: Homo sapiens, T47D, Breast
[19] = tested on: MCF7; assay: NCI 60 cytotoxicity screening; format: cell-based; conditions: Homo sapiens; MCF7, Breast

**Q.** Which IC50 [1] does the source give for `COc1ccc2[nH]c(-c3cccc(F)c3)cc(=O)c2c1OP(=O)(O)O` [CVM-1118] here?
**A.** < 0.05 µM

**Q.** And the IC50 [2]?
**A.** 0.011 µM

**Q.** And the IC50 [3]?
**A.** 0.014 µM

**Q.** What about the IC50 [4] of the same molecule?
**A.** 0.026 µM

**Q.** And the IC50 [5]?
**A.** 0.01 µM

**Q.** And the IC50 [6]?
**A.** 0.015 µM

**Q.** And the IC50 [7]?
**A.** 0.009 µM

**Q.** What about the IC50 [8] of the same molecule?
**A.** 0.004 µM

**Q.** What about the IC50 [9] of the same molecule?
**A.** 0.018 µM

**Q.** What about the IC50 [10] of the same molecule?
**A.** 0.021 µM

**Q.** And the bioavailability ([11]; male, CD-1, mouse, plasma, po, 30 mg/kg, single oral CVM-1118 30 mg/kg in 9% NaHCO3, fasted male CD-1 mice, read-out: F (oral bioavailability))?
**A.** ~3%

**Q.** And the AUC(0-inf) [11]?
**A.** 0.007 µg·h/mL

**Q.** And the AUC(0-t) [11]?
**A.** 0.007 µg·h/mL

**Q.** And the Cmax [11]?
**A.** 0.021 µg/mL

**Q.** What about the MRT [11] of the same molecule?
**A.** 36 min

**Q.** And the Tmax [11]?
**A.** 15 min

**Q.** What about the half-life [11] of the same molecule?
**A.** 42 min

**Q.** What about the “F (oral bioavailability)” value ([11]; single oral CVM-1118 30 mg/kg in 9% NaHCO3, fasted male CD-1 mice, 30 mg/kg) of the same molecule?
**A.** 2.96%

**Q.** Which GI50 [12] does the source give for `COc1ccc2[nH]c(-c3cccc(F)c3)cc(=O)c2c1O` [CVM-1125] here?
**A.** 0.0331 µM

**Q.** And the GI50 [13]?
**A.** 0.0414 µM

**Q.** What about the GI50 [14] of the same molecule?
**A.** 0.0248 µM

**Q.** And the GI50 [15]?
**A.** 0.0255 µM

**Q.** What about the GI50 [16] of the same molecule?
**A.** < 0.01 µM

**Q.** What about the GI50 [17] of the same molecule?
**A.** 0.0429 µM

**Q.** What about the GI50 [18] of the same molecule?
**A.** 0.028 µM

**Q.** What about the IC50 [1] of the same molecule?
**A.** < 0.05 µM

**Q.** And the IC50 [2]?
**A.** 0.007 µM

**Q.** What about the IC50 [3] of the same molecule?
**A.** 0.014 µM

**Q.** And the IC50 [4]?
**A.** 0.029 µM

**Q.** What about the IC50 [5] of the same molecule?
**A.** 0.008 µM

**Q.** And the IC50 [6]?
**A.** 0.017 µM

**Q.** And the IC50 [7]?
**A.** 0.008 µM

**Q.** What about the IC50 [8] of the same molecule?
**A.** 0.005 µM

**Q.** What about the IC50 [9] of the same molecule?
**A.** 0.014 µM

**Q.** And the IC50 [10]?
**A.** 0.027 µM

**Q.** What about the GI50 [19] of the same molecule?
**A.** 0.0299 µM

**Q.** And the AUC(0-inf) [11]?
**A.** 0.287 µg·h/mL

**Q.** And the AUC(0-t) [11]?
**A.** 0.279 µg·h/mL

**Q.** What about the Cmax [11] of the same molecule?
**A.** 0.349 µg/mL

**Q.** And the MRT [11]?
**A.** 180 min

**Q.** And the Tmax [11]?
**A.** 15 min

**Q.** And the half-life [11]?
**A.** 498 min
